In patent publication US4242329A, “Bradykinin-inhibiting tripeptide derivatives” (AB Kabi, priority 1978, dated 1980):
Non-standard residues stand in square brackets, D forms with d. Residues, ends and D or L forms follow the SMILES beside them.

Test system: isolated rat uterus
Assay: Bradykinin-inhibiting activity on isolated rat uterus (contraction at ED70 of bradykinin)
Assay type: cell-based
Settings: for Inhibition of bradykinin effect, %: against ED70 of bradykinin, isolated rat uterus; for Duration of inhibition: time until bradykinin again gives the original contraction
Method: The bradykinin-inhibiting activity of the new tripeptide derivatives is evident from the following disclosure of the biological evaluation on isolated organs. The bradykinin-inhibiting activity is studied on isolated rat uterus. The rats are pretreated subcutanous with 0.2 mg/kg of diethyl stilbestrol, 12-15 hours prior to the experiment. The muscle from uterus which is longitudinally sectioned into halves is arranged in a smooth muscle bath with de Jalon's buffer (de Jalon et al., Farmacother.Acta, Vol. 3, p. 313, 1945), oxygenated with carbogene gas (5% carbon dioxide, 95% oxygen). The temperature is maintained at 35° C. The muscle is stretched with a tension corresponding to 0.5 g. The isometric tension is measured with Grass (FT 03C) force transmitter connected to a Grass polygraph.
Muscle contractions for bradykinin in bath concentrations of 10^-11 -10^-6 M (mole/liter) are registrated, and thereafter the concentration of bradykinin which induces 70% of maximum muscle contraction (ED70) is evaluated. The bradykinin inhibiting activity is then tested with the tripeptide derivatives in bath concentrations of 10^-8, 10^-7, 10^-6 and 10^-5 M, against the ED70 for bradykinin of resp. muscle. For each concentration the tripeptide derivatives are incubated with the uterus tissue 5 and 10 minutes resp. before the addition of bradykinin. The bradykinin-inhibiting activity is expressed as the time in minutes required until bradykinin again gives the original contraction. Each addition of bradykinin is followed by washing with the buffer.

[1] = conc. in test bath 10^-5 mole/liter
[2] = conc. in test bath 10^-6 mole/liter
[3] = conc. in test bath 10^-7 mole/liter
[4] = conc. in test bath 10^-8 mole/liter

Row | SMILES | Inhibition of bradykinin effect, % [1] [%] | Duration of inhibition [1] [min] | Inhibition of bradykinin effect, % [2] [%] | Duration of inhibition [2] [min] | Inhibition of bradykinin effect, % [3] [%] | Duration of inhibition [3] [min] | Inhibition of bradykinin effect, % [4] [%] | Duration of inhibition [4] [min]
1 | CCCCCCCOC(=O)[C@H](CCCNC(=N)N)NC(=O)[C@H](Cc1ccccc1)NC(=O)[C@H]1CCCN1 [Example I, H-D-Pro-Phe-Arg-O-heptyl] | 100 | 35 | 100 | 15 | 10 | 15 | 10 | 15
2 | CCCCCCCNC(=O)[C@H](CCCNC(=N)N)NC(=O)[C@H](Cc1ccccc1)NC(=O)[C@H]1CCCN1 [Example II, H-D-Pro-Phe-Arg-NH-heptyl] | 100 | 45 | 100 | 30 | 15 | 20 | 15 | 15
3 | N=C(N)NCCC[C@H](NC(=O)[C@H](Cc1ccccc1)NC(=O)[C@H]1CCCN1)C(N)=O [Example III, H-D-Pro-Phe-Arg-NH2] (H-[dP]-Phe-Arg-NH2) | 100 | 50 | 100 | 30 | 15 | 15 | 15 | 15
